Assay results taken from paper PMC9481151, “Discovery of new symmetrical and asymmetrical nitrile-containing 1,4-dihydropyridine derivatives as dual kinases and P-glycoprotein inhibitors: synthesis, in vitro assays, and in silico studies” (Journal of Enzyme Inhibition and Medicinal Chemistry, 2022).
Several values for one entry are separate records, joined by “and”; a condition that tells them apart may be missing. Equal values may be shown once.

Legend:
COLO 205 = assay: NCI single dose (10 µM) SRB screen; assay type: cell-based, human; details: colon cancer, 48 h
SR = assay: NCI single dose (10 µM) SRB screen; assay type: cell-based, human; details: leukaemia, 48 h
M14 = assay: NCI single dose (10 µM) SRB screen; assay type: cell-based, human; details: melanoma, 48 h
PC-3 = assay: NCI single dose (10 µM) SRB screen; assay type: cell-based, human; details: prostate cancer, 48 h
IGROV1 = assay: NCI single dose (10 µM) SRB screen; assay type: cell-based, human; details: ovarian cancer, 48 h
RPMI-8226 = assay: NCI single dose (10 µM) SRB screen; assay type: cell-based, human; details: leukaemia, 48 h
HOP-92 = assay: NCI single dose (10 µM) SRB screen; assay type: cell-based, human; details: non-small cell lung cancer, 48 h
SF-295 = assay: NCI single dose (10 µM) SRB screen; assay type: cell-based, human; details: CNS cancer, 48 h
SK-MEL-2 = assay: NCI single dose (10 µM) SRB screen; assay type: cell-based, human; details: melanoma, 48 h
SNB-19 = assay: NCI single dose (10 µM) SRB screen; assay type: cell-based, human; details: CNS cancer, 48 h
MOLT-4 = assay: NCI single dose (10 µM) SRB screen; assay type: cell-based, human; details: leukaemia, 48 h
U251 = assay: NCI single dose (10 µM) SRB screen; assay type: cell-based, human; details: CNS cancer, 48 h
HCT-116 = assay: NCI single dose (10 µM) SRB screen; assay type: cell-based, human; details: colon cancer, 48 h
LOX IMVI = assay: NCI single dose (10 µM) SRB screen; assay type: cell-based, human; details: melanoma, 48 h
SW-620 = assay: NCI single dose (10 µM) SRB screen; assay type: cell-based, human; details: colon cancer, 48 h
Pseudomonas aeruginosa = assay: Agar well diffusion method
Bacillus subtilis = assay: Agar well diffusion method
SK-MEL-5 = assay: NCI single dose (10 µM) SRB screen; assay type: cell-based, human; details: melanoma, 48 h
CCRF-CEM = assay: NCI single dose (10 µM) SRB screen; assay type: cell-based, human; details: leukaemia, 48 h
SN12C = assay: NCI single dose (10 µM) SRB screen; assay type: cell-based, human; details: renal cancer, 48 h
SK-OV-3 = assay: NCI single dose (10 µM) SRB screen; assay type: cell-based, human; details: ovarian cancer, 48 h
MDA-MB-231 = assay: NCI single dose (10 µM) SRB screen; assay type: cell-based, human; details: breast cancer, 48 h
SNB-75 = assay: NCI single dose (10 µM) SRB screen; assay type: cell-based, human; details: CNS cancer, 48 h
OVCAR-5 = assay: NCI single dose (10 µM) SRB screen; assay type: cell-based, human; details: ovarian cancer, 48 h
HOP-62 = assay: NCI single dose (10 µM) SRB screen; assay type: cell-based, human; details: non-small cell lung cancer, 48 h
HT29 = assay: NCI single dose (10 µM) SRB screen; assay type: cell-based, human; details: colon cancer, 48 h
Candida albicans = assay: Agar well diffusion method
OVCAR-3 = assay: NCI single dose (10 µM) SRB screen; assay type: cell-based, human; details: ovarian cancer, 48 h
HCC-2998 = assay: NCI single dose (10 µM) SRB screen; assay type: cell-based, human; details: colon cancer, 48 h
KM12 = assay: NCI single dose (10 µM) SRB screen; assay type: cell-based, human; details: colon cancer, 48 h
NCI-H23 = assay: NCI single dose (10 µM) SRB screen; assay type: cell-based, human; details: non-small cell lung cancer, 48 h
Escherichia coli = assay: Agar well diffusion method
MDA-MB-435 = assay: NCI single dose (10 µM) SRB screen; assay type: cell-based, human; details: melanoma, 48 h
786-0 = assay: NCI single dose (10 µM) SRB screen; assay type: cell-based, human; details: renal cancer, 48 h
HS578T = assay: NCI single dose (10 µM) SRB screen; assay type: cell-based, human; details: breast cancer, 48 h
HCT-15 = assay: NCI single dose (10 µM) SRB screen; assay type: cell-based, human; details: colon cancer, 48 h
Staphylococcus aureus = assay: Agar well diffusion method
NCI-H226 = assay: NCI single dose (10 µM) SRB screen; assay type: cell-based, human; details: non-small cell lung cancer, 48 h
TK-10 = assay: NCI single dose (10 µM) SRB screen; assay type: cell-based, human; details: renal cancer, 48 h
NCI 60 cancer cell lines = assay: NCI single dose (10 µM) SRB screen, mean over panel; assay type: cell-based, human; details: mean over 60 cell lines, 48 h
SF-268 = assay: NCI single dose (10 µM) SRB screen; assay type: cell-based, human; details: CNS cancer, 48 h
EKVX = assay: NCI single dose (10 µM) SRB screen; assay type: cell-based, human; details: non-small cell lung cancer, 48 h
MDA-MB-468 = assay: NCI single dose (10 µM) SRB screen; assay type: cell-based, human; details: breast cancer, 48 h
SK-MEL-28 = assay: NCI single dose (10 µM) SRB screen; assay type: cell-based, human; details: melanoma, 48 h
K-562 = assay: NCI single dose (10 µM) SRB screen; assay type: cell-based, human; details: leukaemia, 48 h
DU-145 = assay: NCI single dose (10 µM) SRB screen; assay type: cell-based, human; details: prostate cancer, 48 h
T-47D = assay: NCI single dose (10 µM) SRB screen; assay type: cell-based, human; details: breast cancer, 48 h
NCI-H460 = assay: NCI single dose (10 µM) SRB screen; assay type: cell-based, human; details: non-small cell lung cancer, 48 h
MALME-3M = assay: NCI single dose (10 µM) SRB screen; assay type: cell-based, human; details: melanoma, 48 h
NCI-H522 = assay: NCI single dose (10 µM) SRB screen; assay type: cell-based, human; details: non-small cell lung cancer, 48 h
NCI/ADR-RES = assay: NCI single dose (10 µM) SRB screen; assay type: cell-based, human; details: ovarian cancer, 48 h

COC(=O)C1=C(C)NC(C)=C(C(=O)OC(C)C)C1c1cccc(C#N)c1 (racemic) [Compound 2a, (±)-3-Isopropyl 5-methyl 4-(3-cyanophenyl)-2,6-dimethyl-1,4-dihydropyridine-3,5-dicarboxylate]
14%: GI% NCI-H522 (NCI-H522)
0%: Mean GI% (NCI 60 cancer cell lines)
82.6%: % activity index, P. aeruginosa (Pseudomonas aeruginosa; relative to ciprofloxacin)
21 mm: zone of inhibition at 1000 µg/mL (Candida albicans; Candida albicans, 24 h, read-out: Diameter of inhibition zone, C. albicans)
53.8%: % activity index, E. coli (Escherichia coli; relative to ciprofloxacin)
20 mm: zone of inhibition at 1000 µg/mL (Staphylococcus aureus; Staphylococcus aureus, 24 h, read-out: Diameter of inhibition zone, S. aureus)
19 mm: zone of inhibition at 1000 µg/mL (Pseudomonas aeruginosa; Pseudomonas aeruginosa, 24 h, read-out: Diameter of inhibition zone, P. aeruginosa)
73% and 73.9%: % activity index, B. subtilis (Bacillus subtilis; relative to ciprofloxacin)
16%: GI% PC-3 (PC-3) | GI% MOLT-4 (MOLT-4) | GI% K-562 (K-562)
83% and 83.3%: % activity index, S. aureus (Staphylococcus aureus; relative to ciprofloxacin)
17 mm: zone of inhibition at 1000 µg/mL (Bacillus subtilis; Bacillus subtilis, 24 h, read-out: Diameter of inhibition zone, B. subtilis)
77% and 77.8%: % activity index, C. albicans (Candida albicans; relative to clotrimazole)
14 mm: zone of inhibition at 1000 µg/mL (Escherichia coli; Escherichia coli, 24 h, read-out: Diameter of inhibition zone, E. coli)
– (Only GI% ≥ 10 are shown): GI% COLO 205 (COLO 205) | GI% SR (SR) | GI% M14 (M14) | GI% IGROV1 (IGROV1) | GI% RPMI-8226 (RPMI-8226) | GI% HOP-92 (HOP-92) | GI% SF-295 (SF-295) | GI% SK-MEL-2 (SK-MEL-2) | GI% SNB-19 (SNB-19) | GI% U251 (U251) | GI% HCT-116 (HCT-116) | GI% LOX IMVI (LOX IMVI) | GI% SW-620 (SW-620) | GI% SK-MEL-5 (SK-MEL-5) | GI% CCRF-CEM (CCRF-CEM) | GI% SN12C (SN12C) | GI% SK-OV-3 (SK-OV-3) | GI% MDA-MB-231 (MDA-MB-231) | GI% SNB-75 (SNB-75) | GI% OVCAR-5 (OVCAR-5) | GI% HOP-62 (HOP-62) | GI% HT29 (HT29) | GI% OVCAR-3 (OVCAR-3) | GI% HCC-2998 (HCC-2998) | GI% KM12 (KM12) | GI% NCI-H23 (NCI-H23) | GI% MDA-MB-435 (MDA-MB-435) | GI% 786-0 (786-0) | GI% HS578T (HS578T) | GI% HCT-15 (HCT-15) | GI% NCI-H226 (NCI-H226) | GI% TK-10 (TK-10) | GI% SF-268 (SF-268) | GI% EKVX (EKVX) | GI% MDA-MB-468 (MDA-MB-468) | GI% SK-MEL-28 (SK-MEL-28) | GI% DU-145 (DU-145) | GI% T-47D (T-47D) | GI% NCI-H460 (NCI-H460) | GI% MALME-3M (MALME-3M) | GI% NCI/ADR-RES (NCI/ADR-RES)
